# Calls of active or inactive are those of the source.
# Biological target: T1, Polyadenylate-binding protein 1 (Homo sapiens, UniProt P11940)
# Experiment: PABP1 MLLE–PAM2 binding inhibitor potency, dose response, biochemical, fluorescence polarization, FITC-PAM2 peptide (AID 602259)
# Format: functional
# Settings: read-out: IC50_Mean
# T1 sequence (P11940 whole entry): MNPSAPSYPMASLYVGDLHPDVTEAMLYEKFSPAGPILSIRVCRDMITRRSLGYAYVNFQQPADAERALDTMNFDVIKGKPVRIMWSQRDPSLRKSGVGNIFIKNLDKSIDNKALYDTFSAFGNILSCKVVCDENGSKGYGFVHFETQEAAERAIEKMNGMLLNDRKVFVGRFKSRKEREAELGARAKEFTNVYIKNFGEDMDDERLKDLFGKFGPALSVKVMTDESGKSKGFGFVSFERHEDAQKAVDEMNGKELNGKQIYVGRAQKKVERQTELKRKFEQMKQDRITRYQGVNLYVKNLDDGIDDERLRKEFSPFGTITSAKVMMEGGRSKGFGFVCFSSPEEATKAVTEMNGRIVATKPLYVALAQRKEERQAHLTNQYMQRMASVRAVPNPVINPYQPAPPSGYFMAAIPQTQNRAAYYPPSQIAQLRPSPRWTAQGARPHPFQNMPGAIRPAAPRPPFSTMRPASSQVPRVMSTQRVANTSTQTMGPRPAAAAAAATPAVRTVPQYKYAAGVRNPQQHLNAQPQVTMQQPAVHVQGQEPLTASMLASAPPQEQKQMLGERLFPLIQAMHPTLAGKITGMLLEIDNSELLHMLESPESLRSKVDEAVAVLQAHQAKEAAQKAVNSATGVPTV
row,Structure (SMILES),IC50
1,COc1ccccc1NC(=O)Cc1csc(N=C(S)Nc2ccccc2)n1,> 66 µM (inactive)
2,CN(C(=O)CCN1C(=O)/C(=C/c2ccccc2F)SC1=S)C1CCS(=O)(=O)C1 (centres undefined),> 66 µM (inactive)
3,COc1ccc(NC(=O)Nc2ccc([N+](=O)[O-])cc2)cn1,42.1 µM (inactive)
4,Cc1cc(Cl)ccc1N=C(S)NC(C)(C)C,> 66 µM (inactive)
5,Cc1cc(C)nc(SCNC(=O)c2ccccc2)n1,> 66 µM (inactive)

# Biological target: T1, Polyadenylate-binding protein 1
# Experiment: PABP1 MLLE–PAM2 interaction inhibitors, dose response, miRNA deadenylation inhibitor project, biochemical, fluorescence polarization, Cy5-PAM2 peptide, secondary (AID 602260)
# Format: functional
# Settings: read-out: IC50_Mean
row,Structure (SMILES),IC50
1,COc1ccccc1NC(=O)Cc1csc(N=C(S)Nc2ccccc2)n1,> 66 µM (inactive)
2,CN(C(=O)CCN1C(=O)/C(=C/c2ccccc2F)SC1=S)C1CCS(=O)(=O)C1 (centres undefined),> 66 µM (inactive)
3,Cc1cc(Cl)ccc1N=C(S)NC(C)(C)C,> 66 µM (inactive)
4,Cc1cc(C)nc(SCNC(=O)c2ccccc2)n1,> 66 µM (inactive)

# Tested on: Streptococcus sp. 'group A'
# Experiment: growth inhibition of control SK(-) GAS strain, dose response, counter-screen for streptokinase expression inhibitor project, luminescence, kanamycin, BacTiterGlo, confirmation (AID 1900)
# Format: functional, organism-based
# Settings: not given
row,Structure (SMILES),EC50
1,C/C(=N\NC(=O)CSc1[nH]c(C)nc1[N+](=O)[O-])c1ccc(F)cc1,> 150 µM (not active)

# Tested on: H4
# Experiment: Luminescence Cell-Based Dose Response HTS to Identify Activators of 5'UTR Stem-Loop Driven Prion Protein mRNA Translation in H4 Neuroglioblastoma Cells. [Related pubchem assays: 1829 (Project Summary), 1814 (Primary HTS)]
# Format: functional
# Settings: Homo sapiens
row,Structure (SMILES),EC50
1,O=C(c1cnsn1)N1CCC(CO)(Cc2cccc(F)c2)CC1,75.8 µM (active)
2,Clc1ccc(COn2ccnc2)cc1Cl,> 120 µM (not active)
3,CCOC(=O)c1ccc(N[S+]([O-])C23CC4CC(CC(C4)C2)C3)cc1 (centres undefined),> 120 µM (not active)
4,CCN1CCN(c2cc3c(nn2)Oc2ccccc2N3C)CC1,0.573 µM (active)
5,COC(=O)c1cc(/C=C/c2ccccc2)[nH]n1,18.1 µM (active)
6,O=C1C(Cl)=C(NCC2CCCO2)C(=O)N1CCc1ccccc1 (centres undefined),13.1 µM (active)
7,Cn1c(S)nnc1CCCOc1ccc(Cl)cc1Cl,7.51 µM (active)
8,C/C(=N\NC(=O)CSc1[nH]c(C)nc1[N+](=O)[O-])c1ccc(F)cc1,97.5 µM (active)

# Tested on: Streptococcus
# Experiment: Group A Streptococcus viability loss, dose response, counter-screen for streptokinase expression inhibitor project, luminescence, BacTiterGlo (AID 1915);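 further: potency for reduction of bacterial viability or growth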
# Format: functional, organism-based
# Settings: not given
row,Structure (SMILES),EC50
1,C/C(=N\NC(=O)CSc1[nH]c(C)nc1[N+](=O)[O-])c1ccc(F)cc1,> 150 µM (not active)

# Biological target: Cytochrome P450 3A4 (Homo sapiens, UniProt P08684);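 further: CYP3A4 tested as one member of a cytochrome P450 panel screen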
# Settings: not given
# Cytochrome P450 3A4, sequence (P08684 whole entry): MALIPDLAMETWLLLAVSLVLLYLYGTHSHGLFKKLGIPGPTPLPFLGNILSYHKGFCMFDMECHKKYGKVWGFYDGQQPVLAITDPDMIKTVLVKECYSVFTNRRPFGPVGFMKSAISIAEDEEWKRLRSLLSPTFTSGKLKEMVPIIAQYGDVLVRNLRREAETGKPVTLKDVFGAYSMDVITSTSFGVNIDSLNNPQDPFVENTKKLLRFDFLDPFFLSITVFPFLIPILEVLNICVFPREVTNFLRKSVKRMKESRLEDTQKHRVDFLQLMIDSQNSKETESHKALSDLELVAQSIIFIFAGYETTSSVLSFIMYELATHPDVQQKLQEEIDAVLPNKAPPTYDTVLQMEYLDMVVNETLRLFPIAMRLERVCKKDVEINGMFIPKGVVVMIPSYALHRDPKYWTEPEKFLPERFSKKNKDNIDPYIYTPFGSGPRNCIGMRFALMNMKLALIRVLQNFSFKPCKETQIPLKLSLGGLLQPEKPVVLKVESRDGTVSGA
row,Structure (SMILES),AC50
1,CCc1c(C(=O)OC)ncc2[nH]c3cc(OC)c(OC)cc3c12,15.8 µM (inconclusive)
2,Cc1cnc(CNc2cc(-c3cccnc3)ncn2)cn1,15.8 µM (inconclusive)
3,COc1ccc(COC(=O)N/N=C2/C[C@@H](O)[C@@H](O)[C@@H]3[C@H]4C(=O)N(c5ccc(F)cc5F)C(=O)[C@@H]4CC[C@@H]23)cc1,3.16 µM (inconclusive)
4,Cc1noc(C)c1-c1cc(Nc2ccc(F)cc2)ncn1,20 µM (inconclusive)
5,O=c1c(-c2cccc(F)c2)nc2cncnc2n1Cc1ccccc1Cl,15.8 µM (inconclusive)
6,Cc1ccc(NC(S)=Nc2ccc(Br)cc2)cc1,14.1 µM (inconclusive)
7,CCNc1ncc2nc(C)c(=O)n(Cc3ccc(F)cc3)c2n1,7.94 µM (inconclusive)
8,COC(=O)c1ccc2ccn(CC(=O)NC3CCCCC3)c2c1,4.47 µM (inconclusive)
9,COc1ccc(-n2c(=O)c(-c3cccs3)nc3cnc(N4CCN(C)CC4)nc32)cc1,25.1 µM (inconclusive)
10,O=c1c(-c2ccc(F)cc2)nc2cnc(Nc3ccccc3)nc2n1C[C@H]1CCCO1,12.6 µM (inconclusive)
11,CCOc1cc(NC(=O)c2ccc(OC)cc2)c(OCC)cc1N=C(S)Nc1ccccc1,14.1 µM (inconclusive)
12,O=C(CCNC(=O)c1ccccc1)OCN1C(=O)c2ccccc2C1=O,15.8 µM (inconclusive)
13,N#C/C(=C\c1ccc(O)c(O)c1)C(=O)OCCc1cccs1,20 µM (inconclusive)

# Tested on: not listed separately
# Experiment: Luminescence Cell-Based Dose Response HTS to Identify Activators of Luciferase Translation or Activity in H4 […] Cells. [Related pubchem assays: 1829 (Project Summary), 1814 (Primary HTS)]
# Format: functional
# Settings: not given
row,Structure (SMILES),EC50
1,Cc1ccc(N2CCN(C(=O)c3cn(CC4CCCCC4)nn3)C(C)C2)cc1 (centres undefined),0.418 µM (active)
2,O=C(c1cnsn1)N1CCC(CO)(Cc2cccc(F)c2)CC1,15.2 µM (active)
3,Clc1ccc(COn2ccnc2)cc1Cl,> 120 µM (not active)
4,CCOC(=O)c1ccc(N[S+]([O-])C23CC4CC(CC(C4)C2)C3)cc1 (centres undefined),> 120 µM (not active)
5,O=C(c1ccccn1)c1cc2ccccc2n1S(=O)(=O)c1ccccc1,55.9 µM (active)
6,CCN1CCN(c2cc3c(nn2)Oc2ccccc2N3C)CC1,44.6 µM (active)
7,COC(=O)c1cc(/C=C/c2ccccc2)[nH]n1,6.84 µM (active)
8,O=C1C(Cl)=C(NCC2CCCO2)C(=O)N1CCc1ccccc1 (centres undefined),15.4 µM (active)
9,Cn1c(S)nnc1CCCOc1ccc(Cl)cc1Cl,22.5 µM (active)
10,C/C(=N\NC(=O)CSc1[nH]c(C)nc1[N+](=O)[O-])c1ccc(F)cc1,14.3 µM (active)

# Biological target: T2, Streptokinase A (Streptococcus pyogenes serotype M1, UniProt P10520)
# T2 sequence (P10520 whole entry): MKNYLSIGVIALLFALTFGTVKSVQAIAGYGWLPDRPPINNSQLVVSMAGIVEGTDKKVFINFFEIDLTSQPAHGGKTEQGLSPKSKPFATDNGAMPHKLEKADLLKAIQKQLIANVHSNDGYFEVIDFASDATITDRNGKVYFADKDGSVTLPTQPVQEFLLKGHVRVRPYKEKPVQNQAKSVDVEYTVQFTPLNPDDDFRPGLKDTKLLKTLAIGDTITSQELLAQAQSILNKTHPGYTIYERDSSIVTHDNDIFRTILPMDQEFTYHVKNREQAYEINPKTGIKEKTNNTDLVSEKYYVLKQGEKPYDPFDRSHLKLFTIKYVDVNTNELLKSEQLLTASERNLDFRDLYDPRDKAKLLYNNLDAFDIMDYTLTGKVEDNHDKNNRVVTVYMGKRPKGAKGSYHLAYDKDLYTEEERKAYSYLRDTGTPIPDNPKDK
# Experiment: S. pyogenes streptokinase expression inhibitors, potency, dose response, plasminogen activation absorbance, OD405 (AID 1914);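 further: secreted streptokinase activity via plasminogen activation per viability signal from cell pellet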
# Format: functional, Streptococcus pyogenes M1 GAS
# Settings: not given
row,Structure (SMILES),EC50
1,C/C(=N\NC(=O)CSc1[nH]c(C)nc1[N+](=O)[O-])c1ccc(F)cc1,> 150 µM (not active)

# Biological target: T3, Cytochrome P450 1A2 (Homo sapiens, UniProt P05177);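 further: PubChem cytochrome P450 panel assay, CYP1A2 panel member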
# T3 sequence (P05177 whole entry): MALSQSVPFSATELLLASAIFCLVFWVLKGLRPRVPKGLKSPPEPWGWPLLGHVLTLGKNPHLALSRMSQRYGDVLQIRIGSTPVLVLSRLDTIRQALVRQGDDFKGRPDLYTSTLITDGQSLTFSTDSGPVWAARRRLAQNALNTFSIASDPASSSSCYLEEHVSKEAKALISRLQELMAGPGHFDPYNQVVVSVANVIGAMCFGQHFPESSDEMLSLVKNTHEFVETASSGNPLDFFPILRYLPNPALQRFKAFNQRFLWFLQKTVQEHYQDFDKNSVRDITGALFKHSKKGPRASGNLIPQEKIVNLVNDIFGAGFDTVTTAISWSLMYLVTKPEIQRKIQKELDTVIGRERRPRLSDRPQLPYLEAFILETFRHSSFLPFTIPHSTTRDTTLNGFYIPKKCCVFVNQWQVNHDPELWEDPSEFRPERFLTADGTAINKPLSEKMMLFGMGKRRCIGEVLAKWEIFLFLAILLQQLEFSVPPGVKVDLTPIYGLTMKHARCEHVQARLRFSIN
# Settings: not given
row,Structure (SMILES),AC50
1,Cc1cnc(CNc2cc(-c3cccnc3)ncn2)cn1,15.8 µM (inconclusive)
2,COc1ccc(-n2c(=O)c(-c3cccs3)nc3cnc(N4CCN(C)CC4)nc32)cc1,2.51 µM (inconclusive)
3,O=c1c(-c2ccc(F)cc2)nc2cnc(Nc3ccccc3)nc2n1C[C@H]1CCCO1,2 µM (inconclusive)
4,CCOc1cc(NC(=O)c2ccc(OC)cc2)c(OCC)cc1N=C(S)Nc1ccccc1,7.08 µM (inconclusive)

# Biological target: Cytochrome P450 2C19 (Homo sapiens, UniProt P33261)
# Experiment: Cytochrome panel assay with activity outcomes. Panel member name: p450-cyp2c19 Compounds with AC50 equal or less than 10 uM are considered active
# Format: functional
# Settings: read-out: AC50
# Cytochrome P450 2C19, sequence (P33261 whole entry): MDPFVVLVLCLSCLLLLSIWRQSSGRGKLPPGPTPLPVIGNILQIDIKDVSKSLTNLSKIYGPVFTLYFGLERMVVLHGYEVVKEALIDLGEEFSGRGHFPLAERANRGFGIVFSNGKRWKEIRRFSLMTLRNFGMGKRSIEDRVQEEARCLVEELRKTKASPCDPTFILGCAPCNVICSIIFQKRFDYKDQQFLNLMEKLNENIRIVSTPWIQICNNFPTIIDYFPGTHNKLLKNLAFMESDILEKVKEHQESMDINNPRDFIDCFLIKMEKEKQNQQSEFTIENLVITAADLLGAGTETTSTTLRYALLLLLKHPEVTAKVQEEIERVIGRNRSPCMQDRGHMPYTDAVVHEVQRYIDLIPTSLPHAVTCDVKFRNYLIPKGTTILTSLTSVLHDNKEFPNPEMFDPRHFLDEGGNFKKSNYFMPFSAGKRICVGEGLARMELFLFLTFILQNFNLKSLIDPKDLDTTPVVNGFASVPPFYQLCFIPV
row,Structure (SMILES),AC50
1,Cc1noc(C)c1-c1cc(Nc2ccc(F)cc2)ncn1,39.8 µM (inconclusive)
2,CCNc1ncc2nc(C)c(=O)n(Cc3ccc(F)cc3)c2n1,6.31 µM (inconclusive)
3,CCOc1cc(NC(=O)c2ccc(OC)cc2)c(OCC)cc1N=C(S)Nc1ccccc1,2.51 µM (inconclusive)
4,O=C(CCNC(=O)c1ccccc1)OCN1C(=O)c2ccccc2C1=O,39.8 µM (inconclusive)

# Tested on: not listed separately
# Experiment: Luminescence Cell-Based Dose Confirmation HTS to Identify Activators of 5'UTR Stem-Loop Driven Alpha-Synuclein mRNA Translation in H4 Neuroglioblastoma Cells. [Related pubchem assays: 1829 (Project Summary), 1814 (Primary HTS)]
# Format: functional
# Settings: not given
row,Structure (SMILES),EC50
1,Cc1ccc(N2CCN(C(=O)c3cn(CC4CCCCC4)nn3)C(C)C2)cc1 (centres undefined),2.49 µM (active)
2,O=C(c1cnsn1)N1CCC(CO)(Cc2cccc(F)c2)CC1,14.8 µM (active)
3,Clc1ccc(COn2ccnc2)cc1Cl,> 120 µM (not active)
4,CCOC(=O)c1ccc(N[S+]([O-])C23CC4CC(CC(C4)C2)C3)cc1 (centres undefined),> 120 µM (not active)
5,O=C(c1ccccn1)c1cc2ccccc2n1S(=O)(=O)c1ccccc1,20.5 µM (active)
6,CCN1CCN(c2cc3c(nn2)Oc2ccccc2N3C)CC1,11.4 µM (active)
7,COC(=O)c1cc(/C=C/c2ccccc2)[nH]n1,25.4 µM (active)
8,O=C1C(Cl)=C(NCC2CCCO2)C(=O)N1CCc1ccccc1 (centres undefined),12.9 µM (active)
9,Cn1c(S)nnc1CCCOc1ccc(Cl)cc1Cl,> 120 µM (not active)
10,C/C(=N\NC(=O)CSc1[nH]c(C)nc1[N+](=O)[O-])c1ccc(F)cc1,15 µM (active)

# Biological target: T4, Heat shock factor protein 1 (Mus musculus, UniProt P38532)
# T4 sequence (P38532 whole entry): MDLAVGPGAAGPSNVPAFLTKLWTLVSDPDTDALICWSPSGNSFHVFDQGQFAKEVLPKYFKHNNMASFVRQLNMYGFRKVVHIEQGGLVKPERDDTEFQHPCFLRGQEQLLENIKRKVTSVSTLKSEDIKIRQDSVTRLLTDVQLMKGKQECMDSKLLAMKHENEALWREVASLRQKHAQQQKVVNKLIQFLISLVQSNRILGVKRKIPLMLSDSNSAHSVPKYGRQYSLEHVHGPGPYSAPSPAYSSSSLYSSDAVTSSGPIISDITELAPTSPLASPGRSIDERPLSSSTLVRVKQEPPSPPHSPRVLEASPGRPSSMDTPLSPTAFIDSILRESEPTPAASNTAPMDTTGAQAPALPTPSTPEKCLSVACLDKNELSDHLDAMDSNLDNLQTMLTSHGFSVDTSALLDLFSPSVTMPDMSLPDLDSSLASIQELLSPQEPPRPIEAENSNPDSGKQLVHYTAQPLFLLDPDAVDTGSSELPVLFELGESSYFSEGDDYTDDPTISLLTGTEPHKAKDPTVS
# Experiment: inhibition of MG132-induced HSE-luciferase signal, confirmation, cell-based, NIH3T3, luminescence, dose retest (AID 2382);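 further: NIH3T3 fibroblasts with HSF1-driven luciferase reporter stressed by proteasome inhibitor MG132; luminescence from HSF1-driven luciferase expression after 8 hours of MG132 stress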
# Format: functional
# Settings: not given
row,Structure (SMILES),EC50
1,C=CCn1c(CCCNC(=O)C(C)(C)C)nc2ccccc21,> 195 µM (not active)
2,COc1cc(SC)ccc1C(=O)OCC(=O)NC1CCCC1,> 195 µM (not active)
3,Cc1ccc(C2=NCCn3c2c2ccc(C(F)(F)F)cc2[n+]3[O-])cc1,> 195 µM (not active)
4,C=CCNc1nnnc2c1sc1nc(N3CCOCC3)c3c(c12)CCCC3,> 195 µM (not active)
5,CC(C)Sc1nc2sccc2c(=O)n1-c1ccccc1,> 195 µM (not active)
6,CC(=O)NC1=NN(C(C)=O)C(c2ccccn2)S1 (centres undefined),> 195 µM (not active)
7,NNC(=O)CNC(=O)CNS(=O)(=O)c1ccccc1,> 195 µM (not active)
8,O=C(Cc1ccccc1F)Nc1ccc(S(=O)(=O)N2CCCCC2)cc1,> 195 µM (not active)
9,O=S(=O)(c1ccccc1)c1c[nH]c(O)n1,> 195 µM (not active)
10,Cc1ccc(C2N(c3ccccc3)C(=S)N3CCCN23)cc1 (centres undefined),> 195 µM (not active)
11,COc1ccc(-n2c(S)nnc2COc2cccc(C)c2)cc1,> 195 µM (not active)
12,Cc1cc(NC(=O)c2ccc3nc(C)sc3c2)no1,0.167 µM (active)
13,COc1ccc(/C=N/Nc2nc(C)cc(O)n2)cc1OC,29.8 µM (active)

# Reference: ChEMBL document CHEMBL1201862, “PubChem BioAssay data set” (2004)
